What was measured:
[1] = degradation of the drug during dissolution, lyophilization and drying (parenteral formulation); assay type: physicochemical; conditions: dissolved in 1:1 tertiary butanol/Water for Injection at 5° C., lyophilized at −16° C. for 48 hours, dried at 15° C. under high vacuum for 48 hours, protected from light
Protocol: Clofarabine, 9.86 g, is wetted/partially dissolved with 600 mL of a 9:1 mixture of tertiary butanol and Water for Injection USP which is pre-cooled to 5° C. Once the drug powder is completely wetted, dissolution is completed by the addition of 600 mL of a 1:9 mixture of tertiary butanol and Water for Injection and 766 mL of a 1:1 mixture of tertiary butanol and Water for Injection which likewise is pre-cooled to 5° C. thereby making the final solution a 1:1 mixture. The dissolution is carried out under protection from light.
The solution formed above is promptly lyophilized in a Virtis INOTOP lyophilizer at −16° C. under light protectant conditions over a period of 48 hours. The resultant lyophilized product (lyophile) is then further dried at 15° C. under high vacuum for 48 hours. […] The lyophile is packaged under sterile conditions into 30 mL vials, each containing 50 mg of drug, 50 mg of mannitol and sodium hydroxide to adjust the pH to 7.7 and standard excess to allow for vial/needle/syringe loss.

[2] = maximum tolerated dose of clofarabine; assay type: in vivo; conditions: species and route not given
Protocol: It may be necessary to use dosages of the active ingredient outside the ranges disclosed herein in some cases, as will be apparent to those of ordinary skill in the art, but the dosage should not fall below 0.01 mg/kg/day. The maximum tolerated doses of clofarabine is approximately 80 mg/kg per day. Furthermore, it is noted that the clinician or treating physician will know how and when to interrupt, adjust, or terminate therapy in conjunction with individual patient response.

Question: Which “degradation of the drug” value [1] does the source give for Nc1nc(Cl)nc2c1ncn2[C@@H]1O[C@H](CO)[C@@H](O)[C@@H]1F [Clofarabine, 2-Chloro-9-(2-deoxy-2-fluoro-β-D-arabinofuranosyl)adenine] here?
Answer: No detectable degradation

Question: What about the maximum tolerated dose [2] of the same compound?
Answer: approximately 80 mg/kg per day
